Test results reported in PubChem BioAssay (NCI).
“And” between values parts separate entries of the source, which are not always exact repeats. Equal values may be shown once.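 Where inhibition never reached the appropriate level, the endpoint shown equals the highest concentration tested. Otherwise, values were interpolated linearly from a five-concentration, 48-hour dose response in 96-well plates. At the GI50, growth is halved. TGI is the concentration that stops growth completely.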

How the values were obtained:
Assay in all cases: NCI tumour cell line growth inhibition, 48 h
HCT-15 colon = test system: HCT-15 colon
U251 CNS = test system: U251 CNS
SNB-75 CNS = test system: SNB-75 CNS
UACC-257 melanoma = test system: UACC-257 melanoma
SK-MEL-2 melanoma = test system: SK-MEL-2 melanoma
IGROV1 ovarian = test system: IGROV1 ovarian
SK-OV-3 ovarian = test system: SK-OV-3 ovarian
MDA-MB-435 = test system: MDA-MB-435
K-562 leukemia = test system: K-562 leukemia
HOP-92 NSCLC = test system: HOP-92 NSCLC

| Structure (SMILES) | GI50 (HCT-15 colon) [µM] | TGI (HCT-15 colon) [µM] | GI50 (U251 CNS) [µM] | TGI (U251 CNS) | GI50 (SNB-75 CNS) [µM] | TGI (SNB-75 CNS) [µM] | GI50 (UACC-257 melanoma) [µM] | TGI (UACC-257 melanoma) [µM] | GI50 (SK-MEL-2 melanoma) [µM] | TGI (SK-MEL-2 melanoma) | GI50 (IGROV1 ovarian) [µM] | TGI (IGROV1 ovarian) | GI50 (SK-OV-3 ovarian) [µM] | TGI (SK-OV-3 ovarian) | GI50 (MDA-MB-435) [µM] | TGI (MDA-MB-435) | GI50 (K-562 leukemia) [µM] | TGI (K-562 leukemia) [µM] | GI50 (HOP-92 NSCLC) [µM] | TGI (HOP-92 NSCLC) [µM] |
| --- | --- | --- | --- | --- | --- | --- | --- | --- | --- | --- | --- | --- | --- | --- | --- | --- | --- | --- | --- | --- |
| Cc1cn2c(=O)n(c1=O)Cc1ccccc1C2 | > 100 | > 100 | > 100 | > 100 µM | 85.9 | > 100 | > 100 | > 100 | > 100 | > 100 µM | 41.7 | > 100 µM | 5.79 | > 100 µM | > 100 | > 100 µM | > 100 | > 100 | > 100 | > 100 |
| Cc1cc(NC(=O)NC(=O)c2ccccc2NC(=O)CN)ccc1Oc1ncc(Br)cn1 | – | 42.2 | 0.409 | 15 µM and 20.6 µM | – | 3.28 | – | 38.4 | 21.2 | 9.7 µM and 52.9 µM | 0.284 | 27.7 µM and 49.5 µM | – | 35.8 µM and 13.9 µM | 0.0399 | 1.78 µM and 0.494 µM | 0.0285 | – | – | 32.7 |
| NC1=C(Cl)C(=O)c2ccccc2C1=O | – | 12.2 | – | 13.9 µM | – | 27.3 | – | 8.38 | – | > 44 µM | – | 26 µM | – | 33.1 µM | – | 2.05 µM | – | 39 | – | 33.7 |
| Cc1cc(C)c2c(N)c3cccc(C)c3nc2n1 | 1.76 | 6.5 | 2.47 | 10.6 µM | 1.83 | 6.63 | 2.15 | 4.45 | 2.03 | 4.97 µM | 3.17 | > 100 µM | 2.11 | 9.36 µM | 2.26 | 8.62 µM | 2.36 | 8.71 | 2.24 | 6.96 |
| Cc1cc2nc3c4cccc(O)c4n(CCN(C)C)c3nc2cc1C | 1.29 | 3.79 | 2.05 | 7.72 µM | 1.18 | 11.1 | 2 | 4.58 | 1.93 | 4.22 µM | 1.32 | 10.8 µM | 3.04 | 14.6 µM | 1.65 | 3.12 µM | 1.24 | 4.77 | 1.57 | 7.58 |
| CNCCOC(=O)/C=C1/CCC2C(C(O)CC3C(C)(C(=O)OC)CCCC23C)C1C (configuration not stated) | 0.0258 | 0.0654 | 0.0183 | 0.0341 µM | 0.0181 | 0.0397 | 0.0226 | 0.0512 | 0.0317 | 0.0805 µM | 0.0305 | 0.0971 µM | 0.0205 | 0.0394 µM | 0.0289 | 0.0881 µM | 0.0308 | 0.0953 | 0.0243 | 0.0764 |
| COc1cc2c3c(n(CCCNCCNCCCN)c(=O)c2cc1OC)-c1cc2c(cc1C3=O)OCO2 | 2.24 | 20 | 0.0177 | 0.422 µM | 10.3 | 26.7 | 9.51 | 30.9 | 2.59 | 10 µM | 1.04 | 7.09 µM | 8.08 | > 100 µM | 3.45 | 15.6 µM | 3.43 | > 100 | 21 | 72.2 |
| CN(C)CCNC(=O)c1nc([N+](=O)[O-])cn1C | – | > 100 | – | > 100 µM | – | > 100 | – | > 100 | – | > 100 µM | – | > 100 µM | – | > 100 µM | – | > 100 µM | – | > 100 | – | > 100 |
| Cc1ccc(/C(=C/C=C(C#N)C#N)Sc2ccccn2)cc1 | 4.09 | 15.8 | 5.02 | 20.3 µM | 5.18 | 18.4 | 14.6 | 28.1 | 7.15 | 35.6 µM | 4.79 | 17.4 µM | 19.6 | 65.8 µM | 4.79 | 13.3 µM | 1.55 | 10.8 | 12.6 | 31.7 |
| CC1(C)Cc2c(Br)c(Br)c(Br)c(OCC(O)CN3CCOCC3)c2O1 (configuration not stated) | 13.7 | 26.8 | 13.7 | 27.9 µM | 12.6 | 38.1 | 19.1 | 37.8 | 7.64 | 23.8 µM | 14.1 | 28.4 µM | 15.9 | 29.6 µM | 15.5 | 31.9 µM | 3.1 | 14.3 | 3.76 | 21.5 |
| COc1ccc(C(=O)CC(c2ccc(OC)c(OC)c2)c2c(O)c3ccccc3oc2=O)cc1OC (configuration not stated) | – | > 100 | – | > 100 µM | – | > 100 | – | > 100 | – | > 100 µM | – | > 100 µM | – | > 100 µM | – | > 100 µM | – | > 100 | – | > 100 |
| COc1cc(-c2n/c(=C\c3c(O)[nH]c4ccccc34)cc3c2=Nc2ccccc2-3)cc(OC)c1OC | 1.72 | > 100 | 0.333 | 12.1 µM | 0.381 | > 100 | 1.73 | > 100 | 1.41 | 29.6 µM | 2 | > 24.5 µM | 4.58 | > 100 µM | 1.68 | 6.48 µM | 0.586 | > 100 | 0.385 | 6.28 |
| O=C1C=CC(=O)c2c1ncc1c2nc2sccn21 | 17.9 | 39.5 | 18.3 | 43.9 µM | – | – | 20.2 | 37.2 | 42.8 | > 100 µM | 22.7 | 56.6 µM | 98.3 | > 100 µM | 16.3 | 39.2 µM | 30.1 | > 100 | 14.9 | 31.1 |
| CCOC(=O)/C(=C\c1ccc(F)cc1)C(C)=O | – | 44.2 | – | 40.7 µM | – | 74.2 | – | 44.7 | – | 41.2 µM | – | 38.9 µM | – | > 100 µM | – | > 100 µM | – | > 100 | – | 44.3 |
